Legend:
Settings in all cases: binder
MARK4 = target: T1, MARK4 (Homo sapiens, UniProt Q96L34)
T1 sequence (Q96L34 1-752): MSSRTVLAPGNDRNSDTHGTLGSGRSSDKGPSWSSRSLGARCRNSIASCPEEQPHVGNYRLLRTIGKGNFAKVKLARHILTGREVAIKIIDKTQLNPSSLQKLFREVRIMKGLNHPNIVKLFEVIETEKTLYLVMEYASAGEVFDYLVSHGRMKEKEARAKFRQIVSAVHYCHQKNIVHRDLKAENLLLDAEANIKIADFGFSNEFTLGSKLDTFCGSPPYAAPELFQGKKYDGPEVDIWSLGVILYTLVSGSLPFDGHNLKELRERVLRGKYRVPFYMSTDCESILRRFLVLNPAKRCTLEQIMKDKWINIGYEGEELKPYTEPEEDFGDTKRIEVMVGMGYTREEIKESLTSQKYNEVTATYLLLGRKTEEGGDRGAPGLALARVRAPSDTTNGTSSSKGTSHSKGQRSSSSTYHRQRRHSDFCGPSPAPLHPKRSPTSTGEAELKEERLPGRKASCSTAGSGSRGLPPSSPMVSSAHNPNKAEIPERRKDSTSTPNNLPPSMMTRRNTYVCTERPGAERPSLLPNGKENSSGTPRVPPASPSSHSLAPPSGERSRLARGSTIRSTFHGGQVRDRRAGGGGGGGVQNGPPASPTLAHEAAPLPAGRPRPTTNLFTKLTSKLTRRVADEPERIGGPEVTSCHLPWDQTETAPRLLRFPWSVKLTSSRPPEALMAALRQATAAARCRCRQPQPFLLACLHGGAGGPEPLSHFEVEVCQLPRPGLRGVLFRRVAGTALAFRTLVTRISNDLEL

AAK1 = AAK1 (Homo sapiens, UniProt Q2M2I8)
BMPR2 = target: T2, BMPR2 (Homo sapiens, UniProt Q13873)
T2 sequence (Q13873 1-1038): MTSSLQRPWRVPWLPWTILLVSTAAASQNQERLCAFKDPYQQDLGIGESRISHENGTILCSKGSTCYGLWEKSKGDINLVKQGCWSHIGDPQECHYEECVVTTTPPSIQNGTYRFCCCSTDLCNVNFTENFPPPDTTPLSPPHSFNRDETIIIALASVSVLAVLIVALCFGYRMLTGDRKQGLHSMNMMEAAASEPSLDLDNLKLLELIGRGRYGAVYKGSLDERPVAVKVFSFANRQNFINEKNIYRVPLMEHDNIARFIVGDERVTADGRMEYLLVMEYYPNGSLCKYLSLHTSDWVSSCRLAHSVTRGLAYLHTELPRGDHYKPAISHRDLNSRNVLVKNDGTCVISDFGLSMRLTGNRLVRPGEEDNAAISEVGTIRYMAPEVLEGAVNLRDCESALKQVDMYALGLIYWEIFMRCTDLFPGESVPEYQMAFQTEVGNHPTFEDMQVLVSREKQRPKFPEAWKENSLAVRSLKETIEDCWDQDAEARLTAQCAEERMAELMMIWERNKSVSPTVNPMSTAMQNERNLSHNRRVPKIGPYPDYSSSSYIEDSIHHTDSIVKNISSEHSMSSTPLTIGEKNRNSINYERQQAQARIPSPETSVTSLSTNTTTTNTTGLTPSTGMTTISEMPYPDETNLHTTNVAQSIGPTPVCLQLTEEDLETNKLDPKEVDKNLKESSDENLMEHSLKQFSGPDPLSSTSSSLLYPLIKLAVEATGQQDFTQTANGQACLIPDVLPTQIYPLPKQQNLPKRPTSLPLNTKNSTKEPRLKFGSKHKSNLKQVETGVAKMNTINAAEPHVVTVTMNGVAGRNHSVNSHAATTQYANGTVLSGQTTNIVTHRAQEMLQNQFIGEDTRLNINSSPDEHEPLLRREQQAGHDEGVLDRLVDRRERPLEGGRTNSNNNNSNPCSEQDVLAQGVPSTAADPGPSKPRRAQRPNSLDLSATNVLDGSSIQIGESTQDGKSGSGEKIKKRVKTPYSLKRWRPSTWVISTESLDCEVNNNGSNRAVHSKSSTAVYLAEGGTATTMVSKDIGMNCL

MYT1 = target: T3, MYT1 (Homo sapiens, UniProt Q99640)
T3 sequence (Q99640 1-499): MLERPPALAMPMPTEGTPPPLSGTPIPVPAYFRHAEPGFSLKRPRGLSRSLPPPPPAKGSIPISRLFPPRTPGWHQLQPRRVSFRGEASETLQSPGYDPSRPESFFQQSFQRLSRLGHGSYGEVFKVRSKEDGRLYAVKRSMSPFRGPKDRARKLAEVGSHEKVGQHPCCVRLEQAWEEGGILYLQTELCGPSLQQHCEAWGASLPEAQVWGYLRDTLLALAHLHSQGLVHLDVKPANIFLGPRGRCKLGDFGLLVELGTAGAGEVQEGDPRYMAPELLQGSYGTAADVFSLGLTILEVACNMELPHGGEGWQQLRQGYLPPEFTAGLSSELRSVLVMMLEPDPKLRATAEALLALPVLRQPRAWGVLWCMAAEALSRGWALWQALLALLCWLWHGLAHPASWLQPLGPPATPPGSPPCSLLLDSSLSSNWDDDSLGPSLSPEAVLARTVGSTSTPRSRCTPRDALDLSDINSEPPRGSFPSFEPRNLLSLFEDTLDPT

DAPK1 = DAPK1 (Homo sapiens, UniProt P53355)
PIM3 = PIM3 (Homo sapiens, UniProt Q86V86)

Chain of AAK1 (Q2M2I8 whole entry): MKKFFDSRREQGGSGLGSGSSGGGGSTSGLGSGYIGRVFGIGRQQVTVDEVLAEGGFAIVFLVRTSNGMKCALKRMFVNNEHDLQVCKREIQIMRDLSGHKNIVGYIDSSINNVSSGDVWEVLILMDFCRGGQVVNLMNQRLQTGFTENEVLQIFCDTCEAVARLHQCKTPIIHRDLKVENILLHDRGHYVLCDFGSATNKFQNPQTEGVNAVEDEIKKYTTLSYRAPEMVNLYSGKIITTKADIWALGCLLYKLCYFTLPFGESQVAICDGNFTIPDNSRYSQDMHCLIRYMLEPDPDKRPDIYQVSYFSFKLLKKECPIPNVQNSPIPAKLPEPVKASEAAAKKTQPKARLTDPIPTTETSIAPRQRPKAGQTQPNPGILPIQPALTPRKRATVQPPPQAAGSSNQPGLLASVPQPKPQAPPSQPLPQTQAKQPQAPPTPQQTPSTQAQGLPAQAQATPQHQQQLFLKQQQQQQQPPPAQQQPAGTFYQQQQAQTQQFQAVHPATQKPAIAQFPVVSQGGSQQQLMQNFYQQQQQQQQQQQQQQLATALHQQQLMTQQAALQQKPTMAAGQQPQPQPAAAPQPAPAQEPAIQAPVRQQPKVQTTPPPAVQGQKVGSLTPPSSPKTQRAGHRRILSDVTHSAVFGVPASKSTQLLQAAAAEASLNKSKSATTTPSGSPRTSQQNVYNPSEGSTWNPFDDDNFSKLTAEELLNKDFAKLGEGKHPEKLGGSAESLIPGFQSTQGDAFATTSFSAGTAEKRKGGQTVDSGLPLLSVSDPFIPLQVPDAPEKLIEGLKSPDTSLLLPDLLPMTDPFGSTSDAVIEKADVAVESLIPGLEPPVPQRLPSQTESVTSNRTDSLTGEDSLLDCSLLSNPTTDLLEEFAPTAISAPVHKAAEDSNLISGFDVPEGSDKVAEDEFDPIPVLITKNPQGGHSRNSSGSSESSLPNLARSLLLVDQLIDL
Chain of DAPK1 (P53355 whole entry): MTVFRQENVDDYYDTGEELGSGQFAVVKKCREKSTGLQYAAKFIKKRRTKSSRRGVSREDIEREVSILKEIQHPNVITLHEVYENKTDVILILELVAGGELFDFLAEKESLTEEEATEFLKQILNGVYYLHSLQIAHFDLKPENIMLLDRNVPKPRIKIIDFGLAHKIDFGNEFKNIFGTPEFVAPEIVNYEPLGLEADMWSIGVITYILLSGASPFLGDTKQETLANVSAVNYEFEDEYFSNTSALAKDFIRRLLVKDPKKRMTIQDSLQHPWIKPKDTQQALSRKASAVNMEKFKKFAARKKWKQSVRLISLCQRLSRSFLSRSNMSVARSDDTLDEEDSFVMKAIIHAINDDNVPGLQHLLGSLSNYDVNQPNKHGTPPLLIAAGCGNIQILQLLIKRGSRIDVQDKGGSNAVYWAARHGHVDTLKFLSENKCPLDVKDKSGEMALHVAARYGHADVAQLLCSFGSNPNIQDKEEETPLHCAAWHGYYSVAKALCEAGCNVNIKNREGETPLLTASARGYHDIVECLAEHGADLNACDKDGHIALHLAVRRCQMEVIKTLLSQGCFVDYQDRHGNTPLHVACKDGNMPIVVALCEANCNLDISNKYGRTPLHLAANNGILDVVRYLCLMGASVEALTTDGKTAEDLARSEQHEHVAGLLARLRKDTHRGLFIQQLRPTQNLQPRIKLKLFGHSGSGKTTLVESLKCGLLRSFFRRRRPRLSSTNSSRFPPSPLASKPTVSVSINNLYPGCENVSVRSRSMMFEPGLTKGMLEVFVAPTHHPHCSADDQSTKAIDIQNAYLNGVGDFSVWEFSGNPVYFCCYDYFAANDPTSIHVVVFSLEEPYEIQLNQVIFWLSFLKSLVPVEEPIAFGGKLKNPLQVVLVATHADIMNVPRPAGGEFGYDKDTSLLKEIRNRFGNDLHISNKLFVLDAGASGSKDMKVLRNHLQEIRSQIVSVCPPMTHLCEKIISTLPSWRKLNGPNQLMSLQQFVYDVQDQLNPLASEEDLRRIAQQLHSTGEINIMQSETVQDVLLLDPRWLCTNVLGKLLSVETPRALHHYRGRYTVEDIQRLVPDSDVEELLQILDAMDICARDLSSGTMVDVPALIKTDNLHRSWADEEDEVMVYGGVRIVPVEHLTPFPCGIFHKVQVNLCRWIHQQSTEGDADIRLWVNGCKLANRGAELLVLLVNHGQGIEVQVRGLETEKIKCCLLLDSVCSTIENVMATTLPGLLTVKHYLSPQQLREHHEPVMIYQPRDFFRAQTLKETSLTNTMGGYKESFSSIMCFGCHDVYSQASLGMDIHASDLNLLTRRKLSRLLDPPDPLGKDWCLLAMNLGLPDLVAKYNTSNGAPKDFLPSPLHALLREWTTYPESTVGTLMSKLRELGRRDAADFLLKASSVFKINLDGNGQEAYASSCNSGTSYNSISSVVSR

SMILES: CNc1ncc2cc(-c3ccc(-c4cccc(C)n4)cc3Cl)c(=O)n(CCCCN)c2n1 [compound 20, MRLW5]
- ΔTm MRLW5 (20) (MARK4): 8.2 °C
- ΔTm MRLW5 (20) (AAK1): 1.4 °C
- ΔTm MRLW5 (20) (BMPR2): -0.1 °C
- ΔTm MRLW5 (20) (MYT1): -1.0 °C
- ΔTm MRLW5 (20) (DAPK1): -0.8 °C
- ΔTm MRLW5 (20) (PIM3): -1.2 °C

SMILES: CNc1ncc2cc(-c3ccc(-c4cccc(C)n4)cc3Cl)c(=O)n(CCC3CCNCC3)c2n1 [compound 22, 6-(2-Chloro-4-(6-methylpyridin-2-yl)phenyl)-2-(methylamino)-8-(2-(piperidin-4-yl)ethyl)pyrido[2,3-d]pyrimidin-7(8H)-one]
- ΔTm 22 (MARK4): 5.8 °C
- ΔTm 22 (AAK1): 2.8 °C
- ΔTm 22 (BMPR2): -0.3 °C
- ΔTm 22 (MYT1): -4.0 °C
- ΔTm 22 (DAPK1): -0.8 °C
- ΔTm 22 (PIM3): -1.2 °C

SMILES: CNc1ncc2cc(-c3ccc(-c4cccc(C)n4)cc3Cl)c(=O)n(C[C@H]3CC[C@H](N)CC3)c2n1 [compound 23, 23]
- ΔTm 23 (MARK4): 12.7 °C
- ΔTm 23 (AAK1): 3.3 °C
- ΔTm 23 (BMPR2): -0.7 °C
- ΔTm 23 (MYT1): -0.9 °C
- ΔTm 23 (DAPK1): -0.4 °C
- ΔTm 23 (PIM3): 0.3 °C

SMILES: Cc1cccc(-c2ccc(-c3cc4cnc(NC(CO)CO)nc4n(CCCCN)c3=O)c(Cl)c2)n1 [compound 24, 8-(4-Aminobutyl)-6-(2-chloro-4-(6-methylpyridin-2-yl)phenyl)-2-((1,3-dihydroxypropan-2-yl)amino)pyrido[2,3-d]pyrimidin-7(8H)-one]
- ΔTm MR24 (24) (MARK4): 3.3 °C
- ΔTm MR24 (24) (AAK1): -0.4 °C
- ΔTm MR24 (24) (BMPR2): -0.1 °C
- ΔTm MR24 (24) (MYT1): -2.0 °C
- ΔTm MR24 (24) (DAPK1): -0.8 °C
- ΔTm MR24 (24) (PIM3): -1.9 °C

SMILES: Cc1cccc(-c2ccc(-c3cc4cnc(NCCCc5ccc(N)cc5)nc4n(CCCCN)c3=O)c(Cl)c2)n1 [compound 25, 8-(4-Aminobutyl)-2-((3-(4-aminophenyl)propyl)amino)-6-(2-chloro-4-(6-methylpyridin-2-yl)phenyl)pyrido[2,3-d]pyrimidin-7(8H)-one]
- ΔTm 25 (MARK4): 5.8 °C
- ΔTm 25 (AAK1): 0.8 °C
- ΔTm 25 (BMPR2): -0.2 °C
- ΔTm 25 (MYT1): -2.3 °C
- ΔTm 25 (DAPK1): -1.0 °C
- ΔTm 25 (PIM3): -0.8 °C

SMILES: Cc1cccc(-c2ccc(-c3cc4cnc(NCCCN5CCOCC5)nc4n(CCCCN)c3=O)c(Cl)c2)n1 [compound 26, MR26]
- ΔTm MR26 (26) (MARK4): 3.7 °C
- ΔTm MR26 (26) (AAK1): -0.2 °C
- ΔTm MR26 (26) (BMPR2): -0.2 °C
- ΔTm MR26 (26) (MYT1): -1.1 °C
- ΔTm MR26 (26) (DAPK1): -0.7 °C
- ΔTm MR26 (26) (PIM3): -0.1 °C

Source: article doi:10.1101/2023.11.24.568596v1 (biorxiv, 2023)
